Reference: ChEMBL document CHEMBL1201862, “PubChem BioAssay data set” (2004)
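Following 48 hours of exposure in 96-well plates, responses at five concentrations were used to interpolate endpoints linearly. Abbreviation: GI50, concentration required for 50% inhibition of growth.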 Calls of active or inactive are those of the source. Rule as the data show it: active = GI50 up to about 1.1 µM and inactive = higher.

What was measured:
Experiment in all cases: NCI anticancer screen, dose series, 48 h
[1] = tested on: CCRF-CEM
[2] = tested on: HCT-15
[3] = tested on: NCI-H23
[4] = tested on: DMS-273
[5] = tested on: K562
[6] = tested on: CAKI-1
[7] = tested on: OVCAR-8
[8] = tested on: U-251
[9] = tested on: SNB-75
[10] = tested on: HOP-18
[11] = tested on: HCC 2998
[12] = tested on: LXFL 529
[13] = tested on: HOP-92
[14] = tested on: TK-10
[15] = tested on: HOP-62
[16] = tested on: KM-20L2
[17] = tested on: SK-MEL-5
[18] = tested on: KM12
[19] = tested on: COLO 205
[20] = tested on: RXF 631
[21] = tested on: IGROV-1
[22] = tested on: RPMI-8226
[23] = tested on: SNB-19
[24] = tested on: M14
[25] = tested on: Malme-3M
[26] = tested on: OVCAR-4
[27] = tested on: UACC-257
[28] = tested on: SK-MEL-28
[29] = tested on: RXF 393
[30] = tested on: SK-OV-3
[31] = tested on: SW-620
[32] = tested on: OVCAR-5
[33] = tested on: ACHN
[34] = tested on: SF-295
[35] = tested on: LOX IMVI
[36] = tested on: SK-MEL-2
[37] = tested on: SF-539
[38] = tested on: SF-268
[39] = tested on: SNB-78
[40] = tested on: MOLT-4
[41] = tested on: DLD-1
[42] = tested on: M19-MEL
[43] = tested on: A549
[44] = tested on: 786-0
[45] = tested on: DMS-114
[46] = tested on: EKVX
[47] = tested on: HT-29
[48] = tested on: NCI-H460
[49] = tested on: OVCAR-3
[50] = tested on: HL-60
[51] = tested on: XF498
[52] = tested on: SR
[53] = tested on: HCT-116
[54] = tested on: NCI-H522
[55] = tested on: SN12C
[56] = tested on: UACC-62
[57] = tested on: NCI-H226

For `CCCCN(CCCC)CC(C(C)=O)C(c1ccccc1)c1c(O)c2ccccc2oc1=O` (configuration not stated), the GI50 [1] was > 100 µM (inactive), the GI50 [2] was > 100 µM and the GI50 [3] was > 100 µM (inactive). For the same molecule, the GI50 [4] was > 100 µM (inactive), the GI50 [5] was > 100 µM (inactive) and the GI50 [6] was > 100 µM (inactive). For the same molecule, the GI50 [7] was > 100 µM (inactive), the GI50 [8] was > 100 µM (inactive) and the GI50 [9] was 19.3 µM (inactive). The GI50 [10] was > 100 µM (inactive), the GI50 [11] was > 100 µM (inactive) and the GI50 [12] was > 100 µM (inactive). For the same molecule, the GI50 [13] was 28 µM (inactive), the GI50 [14] was > 100 µM (inactive) and the GI50 [15] was > 100 µM (inactive). The GI50 [16] was > 100 µM (inactive), the GI50 [17] was > 100 µM (inactive) and the GI50 [18] was > 100 µM (inactive). For the same molecule, the GI50 [19] was > 100 µM (inactive), the GI50 [20] was > 100 µM (inactive) and the GI50 [21] was > 100 µM (inactive). The GI50 [22] was > 100 µM (inactive), the GI50 [23] was > 100 µM (inactive) and the GI50 [24] was > 100 µM (inactive). For the same molecule, the GI50 [25] was > 100 µM (inactive), the GI50 [26] was > 100 µM (inactive) and the GI50 [27] was > 100 µM (inactive). For the same molecule, the GI50 [28] was > 100 µM (inactive), the GI50 [29] was 84.7 µM (inactive) and the GI50 [30] was > 100 µM (inactive). The GI50 [31] was > 100 µM (inactive), the GI50 [32] was > 100 µM (inactive) and the GI50 [33] was > 100 µM (inactive). The GI50 [34] was > 100 µM (inactive), the GI50 [35] was > 100 µM (inactive) and the GI50 [36] was > 100 µM (inactive). For the same molecule, the GI50 [37] was > 100 µM (inactive), the GI50 [38] was > 100 µM (inactive) and the GI50 [39] was > 100 µM (inactive). For the same molecule, the GI50 [40] was > 100 µM (inactive), the GI50 [41] was > 100 µM (inactive) and the GI50 [42] was > 100 µM (inactive). For the same molecule, the GI50 [43] was > 100 µM (inactive), the GI50 [44] was > 100 µM (inactive) and the GI50 [45] was 91 µM (inactive). For the same molecule, the GI50 [46] was > 100 µM (inactive), the GI50 [47] was > 100 µM (inactive) and the GI50 [48] was > 100 µM (inactive). The GI50 [49] was > 100 µM (inactive), the GI50 [50] was > 100 µM (inactive) and the GI50 [51] was > 100 µM (inactive). The GI50 [52] was > 100 µM (inactive), the GI50 [53] was > 100 µM (inactive) and the GI50 [54] was > 100 µM (inactive). The GI50 [55] was > 100 µM (inactive), the GI50 [56] was > 100 µM (inactive) and the GI50 [57] was > 100 µM (inactive).
